Test results as given in patent US20230072225A1, “CONTROLLED RELEASE COMPOSITION AND METHOD” (DUPONT NUTRITION USA, INC., priority 2014, published 2023).

Assay: Minimum film formation temperature (MFFT) of AquaCoat ECD-30 suspensions, MFFT-bar model 90
Type: physicochemical
Conditions: added at 9% by weight based on ethylcellulose solids
Procedure: The MFFT of such suspensions was tested with MFFT-bar model 90. The MFFT bar was preset and the desired temperature range was selected depending on predicted MFFT value. Ranges 3 (5° C. to 18° C.), 4 (15° C.-33° C.) or range 5 (23° C. to 50° C.) were used in this study. The formulation was applied using a 400 micron cube applicator from warm side to cold side, and the MFFT value was read after the film was formed.
Such compounds were added at a rate of 9% by weight (based on weight of ethylcellulose solids). The compounds evaluated were PGDL (propylene glycol dilaurate; HLB 2)), GMC (glyceryl monocaprylate, HLB 8.3), GML (glyceryl monooleate, HLB 2.8) and TGDS (triglycerol diisosterarate HLB 10-13). […] Sticky residue was found in the formulation even after mixing for extended time. The film on the MFFT bar was not smooth or transparent.

## CCCCCCCC(=O)OCC(O)CO (stereo not drawn) [GMC, glyceryl monocaprylate]
  Compatibility with the formulation: didn't have good compatibility with the formulation

## CCCCCCCCCCCC(=O)OCC(C)OC(=O)CCCCCCCCCCC (stereo not drawn) [PGDL, propylene glycol dilaurate]
  Effect on MFFT of the formulation: didn't effectively decrease the MFFT

## triglycerol diisosterarate [TGDS]
  Compatibility with the formulation: didn't have good compatibility with the formulation
